In patent publication US8623859B2, “Bradykinin B1 antagonists” (Evotec AG, priority 2008, dated 2014) one finds IC50 data, which are given here for 19 molecules.

Counter-ions that a name gives are not always drawn. Bounds are passed on as bounds.

The IC50 is the midpoint of a concentration-inhibition curve.

The test has as its target T1, human B1 (Homo sapiens, UniProt P46663).
T1 construct: host or cells: CHO-K1
T1 sequence (P46663 1-353): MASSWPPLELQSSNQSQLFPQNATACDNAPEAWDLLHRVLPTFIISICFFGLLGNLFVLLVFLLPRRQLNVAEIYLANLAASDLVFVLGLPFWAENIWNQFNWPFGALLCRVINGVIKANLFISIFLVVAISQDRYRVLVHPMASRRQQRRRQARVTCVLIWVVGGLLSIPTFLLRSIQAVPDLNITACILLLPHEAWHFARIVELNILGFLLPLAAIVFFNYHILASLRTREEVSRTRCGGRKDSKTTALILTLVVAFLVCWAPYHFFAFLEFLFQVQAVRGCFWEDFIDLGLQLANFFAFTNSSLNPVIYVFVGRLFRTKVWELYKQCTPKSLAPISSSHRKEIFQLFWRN
In words: Calcium flux assay for Bradykinin B1 antagonist, CHO-K1 cell line expressing human B1. The format is cell-based. Conditions: CHO-K1 cells expressing human B1, agonist Lys-(Des-Arg)-Bradykinin, read-out: Potency (IC50 value against human B1). A digest of the protocol:
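Inhibition of B1 agonist-evoked intracellular Ca2+ rise was followed by continuous fluorescence at 538 nm, with integrated, background-normalized signals plotted versus log compound concentration. Test compounds (eight 10-fold dilutions, triplicate, 1% DMSO final) were added 30 min at 25° C beforehand to Fluo-4AM-loaded human B1 CHO-K1 cells in pH 7.4 assay buffer.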
For orientation: Calcium assays in cells follow changes in intracellular calcium, usually with a dye or a luminescent sensor.
Take `COc1cc(C)c(S(=O)(=O)N(C)Cc2cc(C(=O)NCc3cc(CN4CCCC4)ccc3F)co2)c(C)c1` [Ex 151, N-[2-Fluoro-5-(pyrrolidin-1-ylmethyl)benzyl]-5-({[(4-methoxy-2,6-dimethylphenyl)sulfonyl](methyl)amino}methyl)furan-3-carboxamide trifluoroacetate]: the IC50 is 100 to 1000 nM.
Take `COc1cc(C)c(S(=O)(=O)N(C)Cc2cc(C(=O)NCc3ccc(CN4CCCC4)c(F)c3)co2)c(C)c1` [Ex 152, N-[3-Fluoro-4-(pyrrolidin-1-ylmethyl)benzyl]-5-({[(4-methoxy-2,6-dimethylphenyl)sulfonyl](methyl)amino}methyl)furan-3-carboxamide trifluoroacetate]: the IC50 lay in the range of 100 to 1000 nM.
With `COc1cc(C)c(S(=O)(=O)N(Cc2cc(C(=O)NCc3cc(CN4CCCC4)ccc3F)co2)C2CC2)c(C)c1` [Ex 153, 5-({Cyclopropyl[(4-methoxy-2,6-dimethylphenyl)sulfonyl]amino}methyl)-N-[2-fluoro-5-(pyrrolidin-1-ylmethyl)benzyl]furan-3-carboxamide trifluoroacetate], the concentration for half-maximal inhibition (IC50) fell in the range of 100 to 1000 nM.
For `COc1cc(C)c(S(=O)(=O)N(Cc2cc(C(=O)NCc3ccc(CN4CCCC4)c(F)c3)co2)C2CC2)c(C)c1` [Ex 154, 5-({Cyclopropyl[(4-methoxy-2,6-dimethylphenyl)sulfonyl]amino}methyl)-N-[3-fluoro-4-(pyrrolidin-1-ylmethyl)benzyl]furan-3-carboxamide trifluoroacetate], the IC50 is 100 to 1000 nM.
As for `COc1cc(C)c(S(=O)(=O)N(C)Cc2cc(C(=O)NCc3cc(F)cc(CN4CCCC4)c3)co2)c(C)c1` [Ex 155, N-[3-Fluoro-5-(pyrrolidin-1-ylmethyl)benzyl]-5-({[(4-methoxy-2,6-dimethylphenyl)sulfonyl](methyl)amino}methyl)furan-3-carboxamide trifluoroacetate], the IC50 is 10 to 100 nM.
For `COc1cc(C)c(S(=O)(=O)N(C)Cc2cc(C(=O)N(C)Cc3cc(CN4CCCC4)ccc3F)co2)c(C)c1` [Ex 156, N-[2-Fluoro-5-(pyrrolidin-1-ylmethyl)benzyl]-5-({[(4-methoxy-2,6-dimethylphenyl)sulfonyl](methyl)amino}methyl)-N-methylfuran-3-carboxamide trifluoroacetate], the IC50 is 10 to 100 nM.
As for `COc1cc(C)c(S(=O)(=O)N(C)Cc2cc(C(=O)N(C)Cc3ccc(CN4CCCC4)c(F)c3)co2)c(C)c1` [Ex 157, N-[3-Fluoro-4-(pyrrolidin-1-ylmethyl)benzyl]-5-({[(4-methoxy-2,6-dimethylphenyl)sulfonyl](methyl)amino}methyl)-N-methylfuran-3-carboxamide trifluoroacetate], the 50% inhibitory concentration (IC50) fell in the range of 10 to 100 nM.
Then `COc1cc(C)c(S(=O)(=O)N(C)Cc2cc(C(=O)N(C)Cc3cc(F)cc(CN4CCCC4)c3)co2)c(C)c1` [Ex 158, N-[3-Fluoro-5-(pyrrolidin-1-ylmethyl)benzyl]-5-({[(4-methoxy-2,6-dimethylphenyl)sulfonyl](methyl)amino}methyl)-N-methylfuran-3-carboxamide trifluoroacetate], with 10 to 100 nM; and `COc1cc(C)c(S(=O)(=O)N(C)Cc2nc(C(=O)N(C)Cc3ccc(C[N+]4([O-])CCCC4)cc3)co2)c(C)c1` [Ex 159, 2-({[(4-Methoxy-2,6-dimethylphenyl)sulfonyl](methyl)amino}methyl)-N-methyl-N-{4-[(1-oxidopyrrolidin-1-yl)methyl]benzyl}-1,3-oxazole-4-carboxamide trifluoroacetate], with 100 to 1000 nM; and `COc1cc(C)c(S(=O)(=O)N(Cc2nc(C(=O)NCCC3CCCNC3)co2)C2CC2)c(C)c1` (stereo not shown) [Ex 159a, 2-({Cyclopropyl[(4-methoxy-2,6-dimethylphenyl)sulfonyl]amino}methyl)-N-(2-piperidin-3-ylethyl)-1,3-oxazole-4-carboxamide], with 100 to 1000 nM.
Regarding `COc1cc(C)c(S(=O)(=O)N(Cc2nc(C(=O)N(C)Cc3csc(CN4CCCC4)n3)co2)C2CC2)c(C)c1` [Ex 160, 2-({Cyclopropyl[(4-methoxy-2,6-dimethylphenyl)sulfonyl]amino}methyl)-N-methyl-N-{[2-(pyrrolidin-1-ylmethyl)-1,3-thiazol-4-yl]methyl}-1,3-oxazole-4-carboxamide], the IC50 is 10 to 100 nM.
For `COc1cc(C)c(S(=O)(=O)N(Cc2nc(C(=O)N3CCN(c4ccncc4)CC3)co2)C2CC2)c(C)c1` [Ex 161, N-Cyclopropyl-4-methoxy-2,6-dimethyl-N-({4-[(4-pyridin-4-ylpiperazin-1-yl)carbonyl]-1,3-oxazol-2-yl}methyl)benzenesulfonamide trifluoroacetate], the IC50 fell in the range of 100 to 1000 nM.
`COc1cc(C)c(S(=O)(=O)N(Cc2nc(C(=O)N3CCN(Cc4ccncc4)CC3)co2)C2CC2)c(C)c1` [Ex 162, N-Cyclopropyl-4-methoxy-2,6-dimethyl-N-[(4-{[4-(pyridin-4-ylmethyl)piperazin-1-yl]carbonyl}-1,3-oxazol-2-yl)methyl]benzenesulfonamide trifluoroacetate]: the IC50 was under 10 nM.
Consider `COc1cc(C)c(S(=O)(=O)N(Cc2nc(C(=O)N3CCN(Cc4cccnc4)CC3)co2)C2CC2)c(C)c1` [Ex 163, N-Cyclopropyl-4-methoxy-2,6-dimethyl-N-[(4-{[4-(pyridin-3-ylmethyl)piperazin-1-yl]carbonyl}-1,3-oxazol-2-yl)methyl]benzenesulfonamide trifluoroacetate], for which the IC50 is under 10 nM.
On to `COc1cc(C)c(S(=O)(=O)N(C)Cc2nc(C(=O)N3CCN(CCN4CCCC4)CC3)co2)c(C)c1` [Ex 164, 4-Methoxy-N,2,6-trimethyl-N-[(4-{[4-(2-pyrrolidin-1-ylethyl)piperazin-1-yl]carbonyl}-1,3-oxazol-2-yl)methyl]benzenesulfonamide], for which the IC50 lay in the range of 100 to 1000 nM.
As for `COc1cc(C)c(S(=O)(=O)N(Cc2nc(C(=O)N3CCN(C4CCN(C)CC4)CC3)co2)C2CC2)c(C)c1` [Ex 165, N-Cyclopropyl-4-methoxy-2,6-dimethyl-N-[(4-{[4-(1-methylpiperidin-4-yl)piperazin-1-yl]carbonyl}-1,3-oxazol-2-yl)methyl]benzenesulfonamide], the IC50 was under 10 nM.
Turning to `COc1cc(C)c(S(=O)(=O)N(C)Cc2nc(C(=O)N(C)Cc3ccc(CN4CCC(O)CC4)cc3)co2)c(C)c1` [Ex 166, N-{4-[(4-Hydroxypiperidin-1-yl)methyl]benzyl}-2-({[(4-methoxy-2,6-dimethylphenyl)sulfonyl](methyl)amino}methyl)-N-methyl-1,3-oxazole-4-carboxamide], the IC50 is under 10 nM.
On to `COc1cc(C)c(S(=O)(=O)N(C)Cc2nc(C(=O)N(C)Cc3ccc(CN4CCC(OC)CC4)cc3)co2)c(C)c1` [Ex 167, 2-({[(4-Methoxy-2,6-dimethylphenyl)sulfonyl](methyl)amino}methyl)-N-{4-[(4-methoxypiperidin-1-yl)methyl]benzyl}-N-methyl-1,3-oxazole-4-carboxamide], for which the concentration for half-maximal inhibition (IC50) is under 10 nM.
Consider `COc1cc(C)c(S(=O)(=O)N(C)Cc2nc(C(=O)N(C)Cc3ccc(CN4CCCC(OC)C4)cc3)co2)c(C)c1` (stereo not shown) [Ex 168, 2-({[(4-Methoxy-2,6-dimethylphenyl)sulfonyl](methyl)amino}methyl)-N-{4-[(3-methoxypiperidin-1-yl)methyl]benzyl}-N-methyl-1,3-oxazole-4-carboxamide], for which the IC50 was 10 to 100 nM.
